Laboratory results from publication PMC7828447, “Design, Synthesis and Biological Evaluation of Arylpyridin-2-yl Guanidine Derivatives and Cyclic Mimetics as Novel MSK1 Inhibitors. An Application in an Asthma Model” (Molecules, 2021).
Counter-ions that a name gives are not always drawn. Like-named read-outs stand apart in the source and are kept apart here.

Legend:
[1] = target: T1, human synthetic MSK1 (14-438-K, Millipore) (Homo sapiens, UniProt O75582); experiment: MSK1 enzymatic inhibition assay (Kinase-Glo luminescence); type: biochemical; settings: for inhibition at 1 µM: compound at 1 µM, read-out: MSK1 % Inhibition 1 µM; for inhibition at 1 µM / inhibition at 10 µM / IC50: ± Standard Deviation (n = 4); for inhibition at 10 µM: compound at 10 µM, read-out: MSK1 % Inhibition 10 µM; for IC50: 8 concentrations 0.03-100 µM, read-out: MSK1 IC50; for MSK1 inhibitory activity (in words): tested at 1 and 10 µM
T1 construct: purchased Millipore 14-438-K
T1 sequence (O75582 whole entry): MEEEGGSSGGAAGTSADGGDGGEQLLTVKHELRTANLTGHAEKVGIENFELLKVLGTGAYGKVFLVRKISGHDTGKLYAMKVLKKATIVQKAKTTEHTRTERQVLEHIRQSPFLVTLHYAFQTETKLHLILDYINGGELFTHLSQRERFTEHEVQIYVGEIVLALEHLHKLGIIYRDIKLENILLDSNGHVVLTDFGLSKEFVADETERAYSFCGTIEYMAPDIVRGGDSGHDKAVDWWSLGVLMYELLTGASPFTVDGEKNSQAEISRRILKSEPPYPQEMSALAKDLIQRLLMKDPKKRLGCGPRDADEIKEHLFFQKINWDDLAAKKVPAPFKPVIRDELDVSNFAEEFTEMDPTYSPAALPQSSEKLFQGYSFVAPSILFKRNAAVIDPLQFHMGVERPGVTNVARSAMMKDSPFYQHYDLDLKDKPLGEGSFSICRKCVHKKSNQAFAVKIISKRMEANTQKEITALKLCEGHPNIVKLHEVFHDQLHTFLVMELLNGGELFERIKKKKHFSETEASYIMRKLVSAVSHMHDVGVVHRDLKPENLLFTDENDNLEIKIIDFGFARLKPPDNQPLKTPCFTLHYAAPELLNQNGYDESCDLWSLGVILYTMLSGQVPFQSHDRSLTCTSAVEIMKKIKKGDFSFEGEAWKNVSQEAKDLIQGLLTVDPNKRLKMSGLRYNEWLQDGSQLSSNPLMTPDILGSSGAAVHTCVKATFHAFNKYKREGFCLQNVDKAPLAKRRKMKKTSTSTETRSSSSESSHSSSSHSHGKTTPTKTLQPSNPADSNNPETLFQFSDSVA
Experimental: All results are summarized in Table 1, Table 2, Table 3, Table 4 and Table 5 and on Figure 4. […]
An orthogonal luminescence-based assay Kinase-Glo® (Promega, Madison, WI, USA) was used to validate the hits, quantifying the amount of the remaining ATP in the solution following the kinase reaction. Enzymatic reactions were performed up to 4h at room temperature in presence of 3 µM ATP. All compounds were tested in quadruplicates at 1 µM and 10 µM. […] Luminescence was measured with EnVision Plate Reader (Perkin Elmer).

IL-6 production = experiment: Inhibition of IL-6 production (ELISA) in IL-1β-stimulated primary human lung fibroblasts; settings: for inhibition at 10 µM: read-out: Il-6 % Inhibition 10 µM; for inhibition at 30 µM: read-out: Il-6 % Inhibition 30 µM; for IC50: 0.3-30 µM, n = 4
Experimental: Primary human lung fibroblasts were cultured in DMEM/F-12 medium (Gibco Waltham, MA, USA) complemented with 10% fetal bovine serum (Gibco), penicillin (50 U/mL, Gibco), streptomycin (50 µg/mL, Gibco), L-glutamine (2 mM, Gibco), non-essential amino acids (0.1 mM, Gibco) and insulin (0.12 U/mL, Lilly, Indianapolis, IN, USA) Cells were used at passage 7.

[2] = WST-1 cytotoxicity test (cell viability); settings: human, human pulmonary (lung) fibroblasts
Experimental: (§1) A WST1 (Roche) reagent assay was used to determine the cytotoxicity of compounds at 24 h of incubation. […] The absorbance was measured at 450 nm.

[3] = test system: human pulmonary fibroblasts; experiment: WST-1 cytotoxicity test (cell viability); settings: for cytotoxicity (in words): WST-1, concentrations up to 30 µM; for cytotoxicity at 30 µM (in words): compound at 30 µM
Experimental: as §1

[4] = Homo sapiens, Fibroblast, read-out: Il-6 IC50 (µM), IL-1β stimulation

Row | SMILES | inhibition at 1 µM [1] | inhibition at 10 µM [1] | melting point | IC50 [1] | further results
1 | Br.NC1=Nc2cccc(-c3cccc(Cl)c3)c2CN1 [Compound 37d, 5-(3-Chlorophenyl)-3,4-dihydroquinazolin-2-amine Hydrobromide] | -5 ± 4% | 10 ± 7% | 228 to 230 °C |  | 
2 | Br.COc1ccc(-c2cccc3[nH]c(N)nc23)cc1 [Compound 49c, 4-(4-Methoxyphenyl)-1H-benzo[d]imidazol-2-amine Hydrobromide] | -2 ± 6% | 25 ± 5% | 218 to 220 °C |  | 
3 | O=S(=O)(c1cccc2cnccc12)N1CCCNCC1 [Fasudil, fasudil, reference compound] | 50 ± 10% | 82 ± 10% |  |  | inhibition at 10 µM (IL-6 production; Homo sapiens, Fibroblast): 38 ± 6%; inhibition at 30 µM (IL-6 production; Homo sapiens, Fibroblast): 81 ± 6%; IC50 (IL-6 production; [4]): 8.5 ± 5.1 µM
4 | N=C(N)Nc1cccc(-c2ccccc2)n1 [Compound 1a, 1-(6-phenylpyridin-2-yl)guanidine] | 4 ± 4% | 42 ± 9% |  | 17.9 ± 3.9 µM | inhibition at 10 µM (IL-6 production; Homo sapiens, Fibroblast): 17 ± 7%; inhibition at 30 µM (IL-6 production; Homo sapiens, Fibroblast): 60 ± 4%; IC50 (IL-6 production; [4]): 16.3 ± 6.1 µM; viability at 24 h, 10 µM [2]: 122 ± 14%; viability at 24 h, 30 µM [2]: 103 ± 5%; cytotoxicity (in words) [3]: non-toxic
5 | Br.COc1ccccc1-c1cccc2c1CNC(N)=N2 [Compound 37g, 5-(2-Methoxyphenyl)-3,4-dihydroquinazolin-2-amine Hydrobromide] | -14 ± 3% | -5 ± 1% | 226 to 229 °C |  | 
6 | N=C(N)Nc1cccc(-c2ccoc2)n1.O=C(O)C(F)(F)F [Compound 1g, 1-[6-(Furan-3-yl)pyridin-2-yl] guanidinium trifluoroacetate] |  | 33 ± 8% | 219 to 221 °C | > 30 µM | 
7 | Br.Nc1nc2c(-c3ccc(Cl)cc3)cccc2[nH]1 [Compound 49b, 4-(4-Chlorophenyl)-1H-benzo[d]imidazol-2-amine Hydrobromide] | -3 ± 6% | 49 ± 9% | 254 to 256 °C |  | 
8 | N=C(N)Nc1cccc(-c2ccccc2F)n1 [Compound 1j, 1-[6-(2-Fluorophenyl)pyridin-2-yl] guanidiniumtrifluoroacetate] | 6 ± 3% | 45 ± 9% |  | 5 ± 0.5 µM | inhibition at 10 µM (IL-6 production; Homo sapiens, Fibroblast): 42 ± 4%; viability at 24 h, 10 µM [2]: 100 ± 8%; viability at 24 h, 30 µM [2]: 41 ± 9%; cytotoxicity (in words) [3]: cytotoxic; cytotoxicity at 30 µM (in words) [3]: cytotoxic
9 | CCCNC1=Nc2cccc(-c3ccccc3)c2CN1 [Compound 60a] | 0% | 2 ± 3% | 70 to 72 °C |  | MSK1 inhibitory activity (in words) [1]: inactivity
10 | N=C(N)Nc1cccc(-c2cc3ccccc3o2)n1.O=C(O)C(F)(F)F [Compound 1h, 1-[6-(1-Benzofuran-2-yl)pyridin-2-yl] guanidinium trifluoroacetate] |  | 1 ± 6% | 269 to 270 °C |  | MSK1 inhibitory activity (in words) [1]: totally inactive
11 | Nc1nc2c(-c3ccccc3)cccc2[nH]1 [Compound 49a, 4-Phenyl-1H-benzo[d]imidazol-2-amine hydrobromide] | 5 ± 3% | 46 ± 6% |  | 3.6 ± 0.5 µM | inhibition at 10 µM (IL-6 production; Homo sapiens, Fibroblast): 12 ± 4%; inhibition at 30 µM (IL-6 production; Homo sapiens, Fibroblast): 22 ± 1%; IC50 (IL-6 production; [4]): > 30 µM; viability at 24 h, 10 µM [2]: 93 ± 17%; viability at 24 h, 30 µM [2]: 91 ± 15%
12 | NC1=Nc2cccc(-c3ccccc3)c2CN1 [Compound 37a] | -19 ± 1% | 44 ± 1% |  | 15.8 ± 3.2 µM | inhibition at 10 µM (IL-6 production; Homo sapiens, Fibroblast): 18 ± 7%; inhibition at 30 µM (IL-6 production; Homo sapiens, Fibroblast): 23 ± 6%; IC50 (IL-6 production; [4]): > 30 µM; IC50 (IL-6 production; read-out: Il-6 IC50, IL-1β stimulation): > 30 µM; viability at 24 h, 10 µM [2]: 122 ± 14%; viability at 24 h, 30 µM [2]: 103 ± 5%
13 | Br.NC1=Nc2cccc(-c3ccc(Cl)cc3)c2CN1 [Compound 37b, 5-(4-Chlorophenyl)-3,4-dihydroquinazolin-2-amine Hydrobromide] | -9 ± 2% | 0% | 196 to 197 °C |  | 
14 | Br.NC1=Nc2cccc(-c3ccccc3Cl)c2CN1 [Compound 37f, 5-(2-Chlorophenyl)-3,4-dihydroquinazolin-2-amine Hydrobromide] | 0% | 38 ± 4% | 178 to 179 °C | 16.4 ± 4 µM | inhibition at 10 µM (IL-6 production; Homo sapiens, Fibroblast): 17 ± 5%; viability at 24 h, 10 µM [2]: 100 ± 8%; viability at 24 h, 30 µM [2]: 41 ± 9%; cytotoxicity at 30 µM (in words) [3]: cytotoxic
15 | Br.Nc1nc2c(-c3cc(Cl)ccc3Cl)cccc2[nH]1 [Compound 49f, 4-(2,5-Dichlorophenyl)-1H-benzo[d]imidazol-2-amine Hydrobromide] | 6 ± 3% | 61 ± 5% | 202 to 205 °C | 6.8 ± 0.8 µM | 
16 | Br.COc1ccccc1-c1cccc2[nH]c(N)nc12 [Compound 49g, 4-(2-Methoxyphenyl)-1H-benzo[d]imidazol-2-amine Hydrobromide] | -3 ± 5% | 39 ± 7% | 61 to 66 °C |  | 
17 | c1ccc(NC2=Nc3cccc(-c4ccccc4)c3CN2)cc1 [Compound 60b] | -2 ± 1% | 1 ± 2% | 77 to 82 °C |  | MSK1 inhibitory activity (in words) [1]: inactivity
18 | O=S(=O)(NCCNC/C=C/c1ccc(Br)cc1)c1cccc2cnccc12 [Compound H89, H89, reference compound] | 80 ± 8% | 93 ± 10% |  | 0.25 ± 0.06 µM | inhibition at 10 µM (IL-6 production; Homo sapiens, Fibroblast): 38 ± 5%; inhibition at 30 µM (IL-6 production; Homo sapiens, Fibroblast): 96 ± 1%; IC50 (IL-6 production; [4]): 10.5 ± 5.1 µM
19 | N=C(N)Nc1cccc(-c2ccc(C(F)(F)F)cc2)n1.O=C(O)C(F)(F)F [Compound 1c, 1-[6-(4-Trifluoromethylphenyl)pyridin-2-yl] guanidinium trifluoroacetate] | -6 ± 2% | -1 ± 5% | 248 to 249 °C |  | MSK1 inhibitory activity (in words) [1]: inactive
20 | N=C(N)Nc1cccc(-c2cccc(Cl)c2Cl)n1.O=C(O)C(F)(F)F [Compound 1o, 1-[6-(2,3-Dichlorophenyl)pyridin-2-yl] guanidinium trifluoroacetate] | 7 ± 3% | 71 ± 13% | 190 to 191 °C | 2.3 ± 0.3 µM | 
21 | Br.COc1cccc(-c2cccc3c2CNC(N)=N3)c1 [Compound 37e, 5-(3-Methoxyphenyl)-3,4-dihydroquinazolin-2-amine Hydrobromide] | -6 ± 4% | 3 ± 7% | 198 to 199 °C |  | 
22 | N=C(N)Nc1cccc(-c2ccccc2C(F)(F)F)n1.O=C(O)C(F)(F)F [Compound 1m, 1-[6-(2-Trifluoromethylphenyl)pyridin-2-yl] guanidinium trifluoroacetate] | 4 ± 2% | 38 ± 9% | 157 to 158 °C | 8.1 ± 1.2 µM | 
23 | N=C(N)Nc1cccc(-c2cc(Cl)ccc2Cl)n1 [Compound 1q, 1-[6-(2,5-Dichlorophenyl)pyridin-2-yl] guanidiniumtrifluoroacetate] | 23 ± 6% | 84 ± 4% |  | 0.9 ± 0.1 µM | viability at 24 h, 10 µM [2]: 31 ± 19%; viability at 24 h, 30 µM [2]: 13 ± 1%; cytotoxicity (in words) [3]: cytotoxic
24 | Cc1ccccc1-c1cccc(NC(=N)N)n1 (as salt: trifluoroacetate) [Compound 1l, 1-[6-(2-Methylphenyl)pyridin-2-yl] guanidiniumtrifluoroacetate] |  |  | 168 to 169 °C |  | 
25 | N=C(N)Nc1cccc(Cc2ccccc2)n1 (as salt: trifluoroacetate) [Compound 17, 1-(6-Benzylpyridin-2-yl) guanidiniumtrifluoroacetate] |  |  | 161 to 162 °C |  | 
